Assay results: patent US20230372328A1, “ORAL DELAYED BURST FORMULATION OF LOW-DOSE NALTREXONE AND METHODS FOR TREATING FIBROMYALGIA AND LONG COVID” (Scilex Holding Company, priority 2020, published 2023)
Counter-ions that a name gives are not always drawn. Like-named read-outs stand apart in the source and are kept apart here.

What was measured:
[1] = cited from earlier work
[2] = Naltrexone HCl excipient compatibility (stressed stability) study, assay and impurities; assay type: physicochemical
Method: An excipient compatibility study was designed and conducted to screen excipients for the low dose naltrexone HCl delayed release capsules for formulation development purposes. Based on the formulation approach of a multi-particulate system filled in capsule dosage form, the drug layered spheres were coated with a functional pH dependent polymer film.
The physical mixtures were prepared by weighing individual material into glass crimp vials and mixing using a vortex. The open samples were left open and closed samples were tightly closed using a crimper.

[3] = cited from earlier work; remark: listed apart in the source
[4] = 40° C./ 75% RH - Closed - 2 weeks
[5] = 40° C./ 75% RH - Open - 2 weeks

C=CCN1CC[C@]23c4c5ccc(O)c4OC2C(=O)CC[C@@]3(O)[C@H]1C5 (stereo partly drawn) [Naloxone hydrochloride, 17-allyl-4,5 α-epoxy, 3-14-dihydroxymorphinan-6-one hydrochloride]
solubility ([1]; in alcohol): slightly soluble
solubility ([1]; in ether and in chloroform): practically insoluble
solubility ([1]; in water, in dilute acids, and in strong alkali): soluble

O=C1CC[C@@]2(O)[C@H]3Cc4ccc(O)c5c4[C@@]2(CCN3CC2CC2)[C@H]1O5 [Naltrexone Control]
Assay (%) [2, 4]: 99.3%
Impurities (%) [2, 4]: 0.6%
Assay (%) [2, 5]: 101.5%
Impurities (%) [2, 5]: 0.6%
Assay (%) ([2]; Initial): 99.4%
Impurities (%) ([2]; Initial): 0.4%

C=CCN1CC[C@]23c4c5ccc(O)c4O[C@H]2C(=O)CC[C@@]3(O)[C@H]1C5 [naloxone]
half-life ([3]; in vivo): 3 h
oral bioavailability ([3]; oral): ~3%
